Holding throughout (format): cell-based
Holding throughout (details): Fluo 3, 100% = S1P at 10^-6 M

The target of one assay is T1, human S1P3 receptor (Homo sapiens, UniProt Q99500).
T1 construct: expressed in transfected cells; host or cells: CHO-K1
The experiment in a line: Intracellular calcium mobilization induced test, hS1P3 receptors expressing CHO-K1 cells. As for the experimental part: (§1) Intracellular Calcium Mobilization Induced Test of a Subject Compound Against Human S1P (sphingosine-1-phosphate) Receptor-expressing Cells
(§2) Human S1P receptors expressing CHO-K1 cells (hS1P1 receptors expressing CHO-K1 cells, hS1P3 receptors expressing CHO-K1 cells, and hS1P4 receptors expressing CHO-K1 cells), were maintained in Ham's F-12 medium containing 10% fetal bovine serum and 400 μg/mL Geneticin. Into a black, clear bottom, culture plate (BD Falcon) with 96 wells, 7×10^4 cells/well of the hS1P1 and hS1P3 receptors expressing CHO-K1 cells were plated, and […] of the hS1P4 receptors expressing CHO-K1 cells were plated. The cells were incubated overnight at 37° C. at 5% CO2. The medium in the wells were removed by suction. A loading buffer included in a Calcium Kit-Fluo 3 reagent (Dojindo Laboratories) was added as a fluorescent Ca^2+-binding indicator. The cells were incubated for 80 minutes at 37° C. at 5% CO2. After the incubation, the wells were washed with PBS. A recording buffer included in a Calcium Kit-Fluo 3 reagent was added, and the cells were incubated for 20 minutes at 37° C. at 5% CO2. Using a microplate spectrophotofluorometer (FLEX Station, Molecular Devices), the fluorescence intensity at an excitation wavelength of 485 nm and a detection wavelength of 525 nm was measured. S1P and the subject compound prepared in medium so that the concentration was 10-fold that of the final concentration (final DMSO concentration of 0.1%). The solution was added 18 seconds after the fluorescence measurement was started, and then fluorescence intensity was continuously measured every 1.5 seconds until 100 seconds after addition. A value (fluorescence increase) obtained by subtracting the minimum fluorescence intensity from the maximum fluorescence intensity was calculated from the measurement data. Taking the difference between the fluorescence increase when the solvent was added and the fluorescence increase when the S1P was allowed to act at 10^−6 M as 100%, the fluorescence increase ratio (%) of the subject compound was calculated. Taking this value as the intracellular calcium mobilization induced activity of the subject compound, the EC50 value was determined using PRISM software (GraphPad). In Table 1, 10 nmol/L>EC50 value ≧1 nmol/L is indicated as a +, and 1 nmol/L>EC50 value is indicated as a ++.

In the next assay the target is T2, human S1P4 receptor (Homo sapiens, UniProt O95977).
T2 construct: expressed in transfected cells; host or cells: CHO-K1
T2 sequence (O95977 1-384): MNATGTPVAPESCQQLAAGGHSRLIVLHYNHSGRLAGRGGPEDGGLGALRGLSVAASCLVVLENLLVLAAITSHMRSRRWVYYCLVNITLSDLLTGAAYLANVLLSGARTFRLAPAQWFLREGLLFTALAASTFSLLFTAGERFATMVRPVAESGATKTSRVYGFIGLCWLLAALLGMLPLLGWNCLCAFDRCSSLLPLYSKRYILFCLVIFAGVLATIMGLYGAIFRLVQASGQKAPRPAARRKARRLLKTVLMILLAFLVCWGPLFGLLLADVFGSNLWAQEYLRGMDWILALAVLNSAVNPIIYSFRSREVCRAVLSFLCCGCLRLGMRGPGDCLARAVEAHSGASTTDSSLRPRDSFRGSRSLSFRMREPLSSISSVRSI
The experiment in a line: Intracellular calcium mobilization induced test, hS1P4 receptors expressing CHO-K1 cells. As for the experimental part:
as §1, §2
In general terms: A change in cytosolic calcium serves as a functional read-out for many receptors and channels.

Another assay concerns the target T3, human S1P1 receptor (Homo sapiens, UniProt P21453).
T3 construct: expressed in transfected cells; host or cells: CHO-K1
The assay can be described thus: Intracellular calcium mobilization induced test, hS1P1 receptors expressing CHO-K1 cells. As for the experimental part:
as §1, §2

A word on the EC50: it is the concentration at which the effect is half-maximal.

T3 sequence (P21453 whole entry): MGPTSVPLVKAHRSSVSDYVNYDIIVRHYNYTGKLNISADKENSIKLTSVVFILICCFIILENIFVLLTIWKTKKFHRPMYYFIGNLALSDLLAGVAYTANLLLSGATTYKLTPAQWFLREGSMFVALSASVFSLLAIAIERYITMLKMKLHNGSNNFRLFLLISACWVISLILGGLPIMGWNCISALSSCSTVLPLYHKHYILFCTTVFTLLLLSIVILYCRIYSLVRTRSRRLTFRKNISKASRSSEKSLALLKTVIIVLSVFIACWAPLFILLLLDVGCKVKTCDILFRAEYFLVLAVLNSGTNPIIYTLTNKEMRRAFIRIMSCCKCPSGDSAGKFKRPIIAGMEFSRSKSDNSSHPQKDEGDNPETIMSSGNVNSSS
T1 sequence (Q99500 whole entry): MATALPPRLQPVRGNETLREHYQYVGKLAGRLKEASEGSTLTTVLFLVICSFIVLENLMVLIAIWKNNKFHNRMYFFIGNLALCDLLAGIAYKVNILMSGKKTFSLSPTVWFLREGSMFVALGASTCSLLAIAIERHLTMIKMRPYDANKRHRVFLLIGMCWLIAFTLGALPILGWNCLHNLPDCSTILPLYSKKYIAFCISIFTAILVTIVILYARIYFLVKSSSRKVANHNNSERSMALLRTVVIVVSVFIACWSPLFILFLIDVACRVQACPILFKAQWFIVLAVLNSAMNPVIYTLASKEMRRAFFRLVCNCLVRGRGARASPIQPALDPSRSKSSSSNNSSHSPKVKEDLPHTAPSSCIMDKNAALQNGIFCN

`C[C@@](N)(CCCc1ccc(Oc2cccc(C(F)(F)F)c2)cc1Cl)COP(=O)(O)O` [Example 40, (R)-2-amino-5-[2-chloro-4-(3-trifluoromethylphenoxy)phenyl]-2-methylpentyl phosphoric acid monoester]: the EC50 was above 10000 nM on human S1P3 receptor, 1 to 10 nM at human S1P4 receptor and below 1 nM on human S1P1 receptor.
For the compound `C[C@@](N)(CCc1ccc(Sc2cccc(C(F)(F)F)c2)cc1Cl)COP(=O)(O)O` [Example 43], the values for the half-maximal effective concentration (EC50) at human S1P3 receptor, on human S1P4 receptor and on human S1P1 receptor were above 10000 nM, 1 to 10 nM and below 1 nM, respectively.
Turning to `CCc1cccc(Sc2ccc(CCC[C@@](C)(N)COP(=O)(O)O)c(Cl)c2)c1` [Example 46, (R)-2-amino-5-[2-chloro-4-(3-ethylphenylthio)phenyl]-2-methylpentyl phosphonic acid monoester], the concentration for a half-maximal effect (EC50) at human S1P3 receptor was above 10000 nM; on human S1P4 receptor it was 1 to 10 nM; on human S1P1 receptor, below 1 nM.
For the compound `C[C@@](N)(CCCc1ccc(Sc2cccc(C(F)(F)F)c2)cc1F)COP(=O)(O)O` [Example 49, (R)-2-amino-5-[2-fluoro-4-(3-trifluoromethylphenylthio)phenyl]-2-methylpentyl phosphonic acid monoester], the concentration for a half-maximal effect (EC50) on human S1P3 receptor was above 10000 nM; at human S1P4 receptor, 1 to 10 nM; on human S1P1 receptor, below 1 nM.
In the case of `CCCc1cccc(Oc2ccc(CCC[C@@](C)(N)COP(=O)(O)O)c(Cl)c2)c1` [Example 47, (R)-2-amino-5-[2-chloro-4-(3-propylphenoxy)phenyl]-2-methylpentyl phosphonic acid monoester], the half-maximal effective concentration (EC50) at human S1P3 receptor is above 10000 nM; at human S1P4 receptor, 1 to 10 nM; at human S1P1 receptor it was below 1 nM.
On to `Cc1cccc(Oc2ccc(CCC[C@@](C)(N)COP(=O)(O)O)c(Cl)c2)c1` [Example 45, (R)-2-amino-5-[2-chloro-4-(3-methylphenoxy)phenyl]-2-methylpentyl phosphonic acid monoester], for which the EC50 is above 10000 nM at human S1P3 receptor, 1 to 10 nM at human S1P4 receptor and below 1 nM on human S1P1 receptor.
On the same counts, the results for `C[C@@](N)(CCCc1ccc(Sc2cccc(Cl)c2)cc1Cl)COP(=O)(O)O` [Example 48, (R)-2-amino-5-[2-chloro-4-(3-chlorophenylthio)phenyl]-2-methylpentyl phosphonic acid monoester] are above 10000 nM, below 1 nM and 1 to 10 nM.
As for `C[C@@](N)(CCCc1ccc(Sc2cccc(C(F)F)c2)cc1Cl)COP(=O)(O)O` [Example 51, (R)-2-amino-5-[2-chloro-4-(3-difluoromethylphenylthio)phenyl]-2-methylpentyl phosphonic acid monoester], the EC50 was above 10000 nM at human S1P3 receptor, 1 to 10 nM on human S1P4 receptor and 1 to 10 nM on human S1P1 receptor.
As to `C[C@@](N)(CCc1ccc(Oc2cccc(C(F)(F)F)c2)cc1Cl)COP(=O)(O)O` [Example 42, (R)-2-amino-4-[2-chloro-4-(3-trifluoromethylphenoxy)phenyl]-2-methylbutyl phosphoric acid monoester], the results for the EC50 on human S1P3 receptor, on human S1P4 receptor and at human S1P1 receptor were above 10000 nM, 1 to 10 nM and below 1 nM, respectively.
For the compound `CCc1cccc(Sc2ccc(CC[C@@](C)(N)COP(=O)(O)O)c(Cl)c2)c1` [Example 44, (R)-2-amino-4-[2-chloro-4-(3-ethylphenylthio)phenyl]-2-methylbutyl phosphonic acid monoester], the EC50 is above 10000 nM at human S1P3 receptor, 1 to 10 nM at human S1P4 receptor and below 1 nM on human S1P1 receptor.
On to `CCC[C@@](N)(CCCc1ccc(Sc2cccc(C(F)(F)F)c2)cc1Cl)COP(=O)(O)O` [Example 50, (R)-2-amino-5-[2-chloro-4-(3-trifluoromethylphenylthio)phenyl]-2-propylpentyl phosphonic acid monoester], for which the values for the concentration for a half-maximal effect (EC50) at human S1P3 receptor, at human S1P4 receptor and at human S1P1 receptor were above 10000 nM, 1 to 10 nM and below 1 nM, respectively.
With `C[C@@](N)(CCCc1ccc(Sc2cccc(C(F)(F)F)c2)cc1Cl)COP(=O)(O)O` [Example 41, (R)-2-amino-5-[2-chloro-4-(3-trifluoromethylphenylthio)phenyl]-2-methylpentyl phosphoric acid monoester], the EC50 was above 10000 nM on human S1P3 receptor, 1 to 10 nM on human S1P4 receptor and below 1 nM at human S1P1 receptor.

Values taken from patent US8232319B2, “Amino phosphate derivative and S1P receptor modulator having same as an active ingredient” (Kyorin Pharmaceutical Co., Ltd., priority 2006, dated 2012).
